Data published in patent US11780826B2 (Amgen Inc., priority 2017, dated 2023).

tested on: Bovine cardiac myofibrils; assay: In vitro model of dose-dependent myofibril ATPase modulation (AC1.4, pyruvate kinase/lactate dehydrogenase-coupled ATPase assay at pCa25); format: biochemical; conditions: concentration at which ATPase activity was 1.4-fold higher than the bottom of the dose curve, mean of a minimum of two independent tests
Method in brief: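 Bovine cardiac myofibrils, detergent-treated; 0.25-1.0 mg/ml. Buffer: K-PIPES 12 mM, MgCl2 2 mM, DTT 1 mM, BSA 0.1 mg/ml, pH 6.80, 22° C; Ca2+ set by EGTA/CaCl2. ATP 1 mM, NADH/PEP-coupled, A340. 4-parameter fit; n≥2.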

Row | Structure (SMILES) | AC1.4 [µM]
1 | N#CC1CN(S(=O)(=O)c2cccc(C(=O)N3CCC[C@@H]3C(=O)NCc3cnc(C(F)(F)F)nc3)c2)C1 [Example 136, 1-((3-((3-cyano-1-azetidinyl)sulfonyl)phenyl)carbonyl)-N-((2-(trifluoromethyl)-5-pyrimidinyl)methyl)-D-prolinamide] | 0.2235
2 | Cc1cc(CNC(=O)[C@H]2CCCN2C(=O)[C@H]2CCCN(S(=O)(=O)N3CC(C#N)C3)C2)ccc1Cl [Example 137, N-(4-chloro-3-methylbenzyl)-1-(((3S)-1-((3-cyano-1-azetidinyl)sulfonyl)-3-piperidinyl)carbonyl)-D-prolinamide] | 0.2267
3 | O=C(N[C@@H](c1cc(F)c(Cl)cc1F)C1CC1)[C@H]1C[C@H]2C[C@H]2N1C(=O)c1cc(S(=O)(=O)C2CC2)ccn1 [Example 138, (1R,3R,5R)-N-((R)-(4-chloro-2,5-difluorophenyl)(cyclopropyl)methyl)-2-((4-(cyclopropylsulfonyl)-2-pyridinyl)carbonyl)-2-azabicyclo[3.1.0]hexane-3-carboxamide] | 0.2306
4 | NS(=O)(=O)c1cccc(C(=O)N2[C@@H](C(=O)N[C@@H](c3cc(F)c(Cl)cc3F)C3CC3)C[C@H]3C[C@H]32)c1 [Example 139, (1R,3R,5R)-N-((R)-(4-chloro-2,5-difluorophenyl)(cyclopropyl)methyl)-2-(3-sulfamoylbenzoyl)-2-azabicyclo[3.1.0]hexane-3-carboxamide] | 0.232
5 | Cc1cc(C(=O)N2[C@@H](C(=O)N[C@@H](c3cc(F)c(Cl)cc3F)C3COC3)C[C@H]3C[C@H]32)cc(S(C)(=O)=O)c1 [Example 140, (1R,3R,5R)-N-((R)-(4-chloro-2,5-difluorophenyl)(3-oxetanyl)methyl)-2-(3-methyl-5-(methylsulfonyl)benzoyl)-2-azabicyclo[3.1.0]hexane-3-carboxamide] | 0.2351
6 | CS(=O)(=O)c1cccc(C(=O)N2C[C@@H](F)C[C@@H]2C(=O)N[C@@H](c2cc(F)c(Cl)cc2F)C2COC2)c1 [Example 141, (4S)-N-((R)-(4-chloro-2,5-difluorophenyl)(3-oxetanyl)methyl)-4-fluoro-1-(3-(methylsulfonyl)benzoyl)-D-prolinamide] | 0.2366
7 | N#CC1CN(S(=O)(=O)c2cc(C(=O)N3CCC[C@@H]3C(=O)NCc3ccc(C(F)(F)F)cc3F)ccn2)C1 [Example 142, 1-((2-((3-cyano-1-azetidinyl)sulfonyl)-4-pyridinyl)carbonyl)-N-(2-fluoro-4-(trifluoromethyl)benzyl)-D-prolinamide] | 0.2421

Now from value to compound:

Row | AC1.4 [µM] | Structure (SMILES)
8 | 0.244 | N#CC1CN(S(=O)(=O)N2CCC(F)(F)[C@H](C(=O)N3CCC[C@@H]3C(=O)NCc3ccc(C(F)(F)F)cc3)C2)C1 [Example 143, 1-(((3S)-1-((3-cyano-1-azetidinyl)sulfonyl)-4,4-difluoro-3-piperidinyl)carbonyl)-N-(4-(trifluoromethyl)benzyl)-D-prolinamide]
9 | 0.2462 | C[C@@H](NC(=O)[C@H]1CCCN1C(=O)[C@@H]1CN(S(=O)(=O)N2CC(C#N)C2)CCN1)c1ccc(C(F)(F)F)cc1F [Example 144, 1-(((2S)-4-((3-cyano-1-azetidinyl)sulfonyl)-2-piperazinyl)carbonyl)-N-((1R)-1-(2-fluoro-4-(trifluoromethyl)phenyl)ethyl)-D-prolinamide]
10 | 0.2465 | Cc1c(CNC(=O)[C@H]2CCCN2C(=O)[C@H]2CCCN(S(=O)(=O)N3CC(C#N)C3)C2)cccc1C(F)(F)F [Example 145, 1-(((3S)-1-((3-cyano-1-azetidinyl)sulfonyl)-3-piperidinyl)carbonyl)-N-(2-methyl-3-(trifluoromethyl)benzyl)-D-prolinamide]
11 | 0.2474 | CC[C@@H](NC(=O)[C@H]1CCCN1C(=O)c1cccc(S(=O)(=O)N(C)C)c1)c1ccc(C(F)(F)F)cc1F [Example 146, 1-(3-(dimethylsulfamoyl)benzoyl)-N-((1R)-1-(2-fluoro-4-(trifluoromethyl)phenyl)propyl)-D-prolinamide]
